Data as given in patent US20100204460A1, “NATURAL BRASSINOSTEROIDS FOR USE FOR TREATING HYPERPROLIFERATION, TREATING PROLIFERATIVE DISEASES AND REDUCING ADVERSE EFFECTS OF STEROID DYSFUNCTION IN MAMMALS, PHARMACEUTICAL COMPOSITION AND ITS USE” (priority 2007, published 2010).

Key:
Format in all cases: cell-based
[1] = tested on: DU-145 (androgen-insensitive) prostate cancer cell line; assay: MTT cytotoxicity test, DU-145; settings: 24 h, mean ± SD, read-out: IC50 determined by MTT cytotoxicity test
Method: 3-(4,5-Dimethylthiazol-2-yl)-2,5-diphenyltetrazolium bromide (MTT) was from Serva Electrophoresis (Heidelberg, Germany). Monoclonal mouse anti-bromodeoxyuridine (BrdU) intibody was obtained from DakoCytomation (Glostrup, Denmark). Calcein AM was obtained from PAA Laboratories GmbH (Pasching, Austria). […] All other cells were cultured in DMEM medium (Sigma, MO, USA). All used media were supplemented with 10% heat-inactivated fetal bovine serum, 2 mmol/L L-glutamine, 1% penicillin/streptomycin. The cell lines were maintained under standard cell culture conditions at 37° C. and 5% CO2 in a humid environment. Cells were subcultured twice or three times a week using the standard trypsinization procedure (Sigma, USA).
Cell viability in this case was assessed by 3-(4,5-dimethylthiozol-2-yl)-2,5-diphenyltetrazolium bromide (MTT) to determine IC50 concentrations of studied agents as described previously. […] The cells (70% to 80% confluent) were treated with brassinosteroids for 6, 12 and 24 h in cell culture medium. Cells that were used as controls were incubated with the maximum used amount of steroid diluent DMSO only. […] The absorbance was read using an ELISA reader Labsystem Multiscan RC at 570 nm. The viability of treated cells was related to the viability of control cells that represented 100% viability. […]

DU-145 cells [2] = assay: Western blot of cell cycle and apoptosis related proteins, DU-145; settings: for MDM-2 level (Western blot) / anti-apoptotic protein Bcl-2 expression (Western blot): IC50 for 6, 12, 24 h vs untreated control; for p53 expression (Western blot): vs untreated control
Method: (§1) The cells were seeded in a density 1.6×10^4 cells/cm^2 (LNCaP), 1.4×10^4 cells/cm^2 (DU-145, MDA-MB-468 and MCF-7) using culture medium in 100-mm culture Petri dishes. After reaching of 70-80% confluence, the cells were treated with tested compounds 9 in concentration IC50 that were evaluated by MTT analysis described above. DMSO was used as a vehicle for controls. After 6, 12 and 24 h treatment, the cells were washed with cold PBS and scraped in ice-cold protein extract ion buffer (50 mM HEPES, pH 7.5; 150 mM NaCl; 1 mM EDTA; 2.5 mM EGTA; 10% glycerol; 0.1% Tween 20) with protease and phosphatase inhibitors (25 μL/mL phenylmethanesulphonyl fluoride; 2.5 μL/mL leupeptin; 0.1 mM Na3VO4; 2.5 μL/mL aprotinin; 10 mM β-glycerol-phosphate; 1 mM dithiothreitol). The lysates were collected into microfuge tube and incubated on ice for 1 h. Cells were incubated 60 min at 4° C. under time by time shaking in protein extraction buffer. After centrifugation at 45 000×g for 30 min at 4° C., supernatant was collected, aliquoted, and stored at −80° C. The protein content in the lysates was measured by a Bredford assay (Bio-Rad Laboratories, Hercules, Calif., USA) according to the manufacture's protocol.
(§2) For Western blot analysis, equal aliquots of proteins (15-30 μg/well) were loaded on 10% or 12% SDS-PAGE gels and transferred onto nitrocellulose membranes (Amersham Biosciences, Vienna, Austria) by semi-dry electrophoretic transfer. Coloured marker (Rainbow™, Amersham Biosciences, Vienna, Austria) was used as a protein molecular weight standard. The non-specific binding sites were blocked by incubating the blot with 5% (w/v) non-fat dry milk in PBS for 2 h. The blot was incubated overnight in 4° C. with appropriate primary antibody that detects the protein epitope of interest and finally washed in PBS with 0.1% Tween 20 for 1 h. The blot was incubated with the diluted secondary goat anti-mouse IgG-horseradish peroxidase conjugated antibody (dilution 1:6000, Santa Cruz Biotechnology, Santa Cruz, Calif., USA) or goat anti-rabbit IgG-horseradish peroxidase conjugated antibody (dilution 1:2000, DakoCytomation, Glostrup, Denmark) for 45 min in 4° C. The membrane was washed in PBS with 0.1% Tween 20 for 1 h. The proteins were detected using a chemiluminescence detection system (Amersham Biosciences, Vienna, Austria) according to the protocol provided by the manufacturer. Equality of loaded proteins was confirmed by Ponceau S membrane staining (Sigma, St. Louis, Mo., USA) and by detection of anti-tubulin-α or anti-mcm-7 antibodies. The experiments were repeated three times. The protein expressions in treated cells were compared to untreated controls.
(§3) Western blot analysis was used to detect changes in apoptosis related protein expression in breast and prostate cancer cell lines. […] This decreased expression of Bid can indicate a cleavage of the protein after treatment by BRs. In DU-145 cell line, expression of pro-apoptotic proteins Bax and Bid was unchanged. […] On the other hand, caspase cleavage was not found in DU-145 cells. Poly-(ADP-ribose) polymerase (PARP) positive expression in controls of prostate cancer cell lines was observed but brassinosteroids had no effect on its expression nor on its degradation within the period 6/12/24 h (FIG. 6B).

DU-145 cells [3] = assay: TUNEL detection of apoptosis, DU-145; settings: IC50 concentration, control 0.0 ± 0.0
Method: (§4) TdT-Mediated dUTP nick end labeling (TUNEL) detection of apoptosis index. For detection of apoptotic cells, the TUNEL assay was used. […] After period of treatment, the cells were washed with PBS and fixed on the slides with cold acetone-methanol (1:1, v/v) for 10 min. Apoptosis-induced nuclear DNA fragmentation was detected by terminal deoxynucleotidyl transferase-mediated UTP nick end labeling (TUNEL) technique according to the producer protocol (In Situ Cell Death Detection Kit; Roche Diagnostics, Mannheim, Germany). The cells were then washed three times in PBS and stained with 4′-6-diamidino-2-phenylindole (DAPI; 50 μg/ml; Sigma, St. Louis, Mo., USA) for 10 min in the dark. The coverslips with cells were washed in deionized water and mounted on glass slides, using the hydrophilic medium Mowiol (Calbiochem, Fremont, Calif., USA) in glycerol-PBS (1:3, v/v) for fluorescence. Cells were visualized using fluorescence microscopy and compared with control cells. TUNEL staining achieved to confirm apoptosis in all cell lines.

[4] = tested on: multiple myeloma cell line RPMI 8226; assay: Calcein AM cytotoxicity assay, RPMI 8226; settings: RPMI 8226; exposure 72 h (b71 says 96 h); mean ± SD; read-out: IC50 assessed by Calcein AM assay of surviving cells
MCF-7 cells [5] = assay: Western blot of cell cycle and apoptosis related proteins, MCF-7; settings: for MDM-2 expression (Western blot) / expression of apoptosis related proteins (Bcl-2 family, caspase-3 activation) (Western blot) / p21Waf1/Cip1 expression (Western blot) / p27Kip1 expression (Western blot) / p53 expression (Western blot): IC50 for 6, 12, 24 h vs untreated control; for retinoblastoma protein (Rb) expression, phosphorylated and dephosphorylated forms (Western blot): vs untreated control
Method: as §1, §2, §3

MCF-7 cells [6] = assay: TUNEL detection of apoptosis, MCF-7; settings: IC50 concentration
Method: as §4

MDA-MB-468 cells = assay: TUNEL detection of apoptosis, MDA-MB-468; settings: IC50 concentration, control 0.0 ± 0.0
Method: as §4

SMILES | IC50 [1] [µM] | MDM-2 level (Western blot) (DU-145 cells [2]) | anti-apoptotic protein Bcl-2 expression (Western blot) (DU-145 cells [2]) | p53 expression (Western blot) (DU-145 cells [2]) | percentage of TUNEL positive cells (DU-145 cells [3]; 6 h) [%] | percentage of TUNEL positive cells (DU-145 cells [3]; 12 h) [%] | percentage of TUNEL positive cells (DU-145 cells [3]; 24 h) [%] | IC50 [4] [µM] | MDM-2 expression (Western blot) (MCF-7 cells [5]) | expression of apoptosis related proteins (Bcl-2 family, caspase-3 activation) (Western blot) (MCF-7 cells [5]) | p21Waf1/Cip1 expression (Western blot) (MCF-7 cells [5]) | p27Kip1 expression (Western blot) (MCF-7 cells [5]) | p53 expression (Western blot) (MCF-7 cells [5]) | retinoblastoma protein (Rb) expression, phosphorylated and dephosphorylated forms (Western blot) (MCF-7 cells [5]) | percentage of TUNEL positive cells (MCF-7 cells [6]; 6 h, control 0.0 ± 0.0) [%] | percentage of TUNEL positive cells (MCF-7 cells [6]; 12 h, control 0.0 ± 0.0) [%] | percentage of TUNEL positive cells (MCF-7 cells [6]; 24 h, control 0.3 ± 0.6) [%] | percentage of TUNEL positive cells (MDA-MB-468 cells; 6 h) [%] | percentage of TUNEL positive cells (MDA-MB-468 cells; 12 h) [%] | percentage of TUNEL positive cells (MDA-MB-468 cells; 24 h) [%] | further results
CC(C)[C@@H](C)[C@@H](O)[C@H](O)[C@@H](C)[C@H]1CC[C@H]2[C@@H]3COC(=O)[C@H]4C[C@H](O)[C@H](O)C[C@]4(C)[C@H]3CC[C@]12C [Brassinosteroid 6, 24-Epibrassinolide] | 65 ± 0.9 | decreased level of MDM-2 in all time points | decreased after treatment with 9 (6, 12 and 24 h) or 6 (6 and 24 h) | no p53 expression changes | 4.7 ± 2.5 | 5.6 ± 2.0 | 5.1 ± 5.6 | > 50 | decreased expression of MDM-2 regulator of p53 degradation after all time points | no significant changes in expression of Bcl-2 family protein nor caspase-3 activation | unchanged | decrease after 6 and 12 h | after 6 h exposition to brassinosteroids 9 or 6 a slight increase | decreased | 2.7 ± 1.2 | 8.3 ± 3.1 | 11.7 ± 3.8 | 4.7 ± 0.6 | 16.7 ± 4.7 | 18.3 ± 3.0 | cyclin D1 expression (Western blot) (MCF-7 cells [5]; 6/12/24 h vs untreated control): decreased expression of cyclin D1
CC[C@@H](C(C)C)[C@@H](O)[C@H](O)[C@@H](C)[C@H]1CC[C@H]2[C@@H]3CC(=O)[C@H]4C[C@H](O)[C@H](O)C[C@]4(C)[C@H]3CC[C@]12C [Brassinosteroid 9, 28-Homocastasterone] | 45 ± 2.8 | decreased level of MDM-2 in all time points | decreased after treatment with 9 (6, 12 and 24 h) | no p53 expression changes | 6.0 ± 2.0 | 7.5 ± 4.0 | 8.0 ± 4.0 | 26 ± 1.4 | decreased expression of MDM-2 regulator of p53 degradation after all time points | no significant changes in expression of Bcl-2 family protein nor caspase-3 activation | increase in p21^Waf1/Cip1 and p27^Kip1 expression after 6 h | increase in p21^Waf1/Cip1 and p27^Kip1 expression after 6 h | after 6 h exposition to brassinosteroids 9 or 6 a slight increase | decreased | 10.6 ± 1.5 | 13.7 ± 3.8 | 13.7 ± 2.6 | 1.7 ± 0.6 | 2.3 ± 0.6 | 4.3 ± 0.6 | –
